2 substances from patent publication US20140017230A1, “CHRONIC LYMPHOCYTIC LEUKEMIA (CLL) BIOMARKERS” (HOFFMANN-LAROCHE INC., priority 2011, published 2014) can be followed below.

In one series the test system is CLL patients. The series can be described thus: Phase III trial in CLL patients, R-FC vs FC: progression free survival (PFS) by pretreatment biomarker expression in CD19+ PBMC. The series is classed as in vivo, human. Conditions: for Median PFS PTK2 Exon 1.0 ST / Median PFS PTK2 U133 plus2.0 / Median PFS PTK2 qRT-PCR / Median PFS miRNA151 DISCOVARRAY / Median PFS miRNA151 qRT-PCR / Median PFS miRNA409 DISCOVARRAY / Median PFS miRNA409 qRT-PCR: CLL patients; for Median PFS PTK2 Exon 1.0 ST / Median PFS PTK2 U133 plus2.0 / Median PFS PTK2 qRT-PCR: PTK2 expression in CD19+ cells. Here is the method: Pretreatment patient samples were analyzed from an international, multicenter, open-label, phase III trial, randomizing CLL patients to receive R-FC (rituximab plus fludarabine/cyclophosphamide) or FC (fludarabine/cyclophosphamide) alone. […] The study protocol was approved by institutional review boards at participating centers and all patients gave written informed consent. Details on trial design and eligibility criteria have been described in Robak et al. J. Clin. Oncol. 28(10):1756-1765 (2010). Patients were selected on the availability of RNA and the written informed consent to participate in molecular genetic analyses of peripheral blood samples.
Pretreatment Peripheral Blood Mononuclear Cell (PBMC) samples positively selected for CD19+ cells were available from n=301 patients. CD19 separation was performed by magnetic bead separation according to the manufacturer's protocol (Miltenyi, Germany).
Pretreatment clinical features i.e demographics, prognostic markers (cytogenetic aberrations like del(17p), del(11q), ZAP70 and CD38 expression, IgVH status), progression free survival (PFS) were compared using the Fisher's exact, Mann-Whitney, or log-rank tests. A p-value of <0.05 was considered statistically significant.
Two approaches using a Cox regression model were used to identify genes and miRNA associated with survival. First approach considered the models below.
For the different tables and graphs appearing in this document where median PFS was computed, mRNA and miRNA signal intensities were dichotomized using the median value as a cutoff.
Background: In qPCR the cycle at which signal appears reflects the starting amount.

Series [1] relates to 3′UTR luciferase reporter constructs in HeLa cells. Kind of series: 3′UTR luciferase reporter assay with miRNA151 3p mimic vs scrambled mimic. Conditions: 10 nM mimic, 24 hours post-transfection, normalized to scrambled control. The series is classed as cell-based. Here is the method:
Predicted targets were downloaded from TARGETSCAN 5.1™ (http://www.targetscan.org/) and expression was extracted from the mRNA expression profiling data, irrespective of predicted site conservation. Anti-correlations with miRNAs were determined by comparing miRNA array and mRNA array data and computing Pearson correlation coefficients. […] Subsequently, 3′UTRs that met this threshold were cloned upstream into 3′UTR luciferase reporter constructs (Switchgear Genomics) and 100 ng of each construct was transfected into HeLa cells (ATCC) with 25 ng pRL-CMV, 10 nM miRNA151 3p mimic (Dharmacon) or scrambled mimic in 96-well plates. Luciferase activity was determined 24 hours post-transfection and all data were normalized to renilla luciferase transfection control and scrambled control mimic. Three biological replicates were performed. Statistical significance for a difference between scrambled control and miRNA151 3p mimic was determined by a 2-sided Student's t-test.
A general note: A reporter such as luciferase makes a cellular process visible.

Where [2] appears, read: miRNA signal < median miRNA signal.
[3] abbreviates: miRNA signal > median miRNA signal.

fludarabine/cyclophosphamide [FC]: in the series with CLL patients (Array), the “HR for PFS, miRNA151 < median vs > median within treatment arm” value was 0.99 and the “HR for PFS, miRNA409 < median vs > median within treatment arm” value turned out to be 1.12. Also, in the series with CLL patients (gene < median), the “Median PFS PTK2 Exon 1.0 ST” value was 17.9 months, the “Median PFS PTK2 U133 plus2.0” value was determined as 17.9 months and the “Median PFS PTK2 qRT-PCR” value is 17.9 months. In the series with CLL patients (gene > median), the “Median PFS PTK2 Exon 1.0 ST” value stood at 21.5 months, the “Median PFS PTK2 U133 plus2.0” value amounted to 21.5 months and the “Median PFS PTK2 qRT-PCR” value amounted to 21.5 months. In the series on CLL patients (setting [2]), the “Median PFS miRNA151 DISCOVARRAY” value was determined as 18 months, the “Median PFS miRNA151 qRT-PCR” value was 17.9 months, the “Median PFS miRNA409 DISCOVARRAY” value was determined as 21.6 months and the “Median PFS miRNA409 qRT-PCR” value is listed as 18.3 months. Further, in the series with CLL patients (setting [3]), the “Median PFS miRNA151 DISCOVARRAY” value came to 18.5 months, the “Median PFS miRNA151 qRT-PCR” value came out at 20.7 months, the “Median PFS miRNA409 DISCOVARRAY” value came out at 18 months and the “Median PFS miRNA409 qRT-PCR” value amounted to 18.3 months. Further, the “HR for PFS, PTK2 < median vs > median within treatment arm” value in the series with CLL patients (Exon 1.0 ST, CD19+ cells) was determined as 0.86. For the same substance, in the series on CLL patients (RT-PCR), the “HR for PFS, miRNA151 < median vs > median within treatment arm” value was determined as 0.84 and the “HR for PFS, miRNA409 < median vs > median within treatment arm” value was 1.03. In the series on CLL patients (U133 + 2, CD19+ cells), the “HR for PFS, PTK2 < median vs > median within treatment arm” value is reported as 0.86. Further, the “HR for PFS, PTK2 < median vs > median within treatment arm” value in the series with CLL patients (qRT-PCR, CD19+ cells) was determined as 0.77.

With “miRNA151 3p: miRNA151 3p mimic (Dharmacon); miRNA comprising the sequence CUAGACUGAAGCUCCUUGAGG (SEQ ID NO: 1) (synthetic mimic duplex, passenger strand not listed, further chemistry not given here; listed as Homo sapiens)”, in series [1], the “3′UTRs showing a statistically significant reduction in luciferase activity (5 out of the 18)” value worked out at 28%.
